9 molecules from ChEMBL document CHEMBL1152374, “Regioselective synthesis of methylated epigallocatechin gallate via nitrobenzenesulfonyl (Ns) protecting group” (Bioorg Med Chem Lett, 2009) can be followed below.

Each structure is given as a SMILES string.

In test [1] the target is Matrix metalloproteinase-14 (Homo sapiens, UniProt P50281). The experiment in a line: Inhibition of human recombinant MT1-MMP expressed in Escherichia coli by fluorogenic peptide cleavage assay.
The target of a further test is T1, Matrilysin (Homo sapiens, UniProt P09237).
T1 sequence (P09237 whole entry): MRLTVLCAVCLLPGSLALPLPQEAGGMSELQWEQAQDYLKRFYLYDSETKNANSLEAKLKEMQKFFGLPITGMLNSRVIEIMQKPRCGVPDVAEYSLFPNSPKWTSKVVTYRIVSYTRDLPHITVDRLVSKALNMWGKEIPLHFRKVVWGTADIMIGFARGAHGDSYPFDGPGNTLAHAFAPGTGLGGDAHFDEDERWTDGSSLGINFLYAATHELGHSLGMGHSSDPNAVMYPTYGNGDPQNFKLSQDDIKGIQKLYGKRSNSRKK
The experiment in a line: Inhibition of human recombinant MMP7 expressed in Escherichia coli by fluorogenic peptide cleavage assay.

In test [2] the target is 72 kDa type IV collagenase (Homo sapiens, UniProt P08253). The experiment in a line: Inhibition of human recombinant MMP2 expressed in Escherichia coli by fluorogenic peptide cleavage assay.
Chain of 72 kDa type IV collagenase (P08253 whole entry): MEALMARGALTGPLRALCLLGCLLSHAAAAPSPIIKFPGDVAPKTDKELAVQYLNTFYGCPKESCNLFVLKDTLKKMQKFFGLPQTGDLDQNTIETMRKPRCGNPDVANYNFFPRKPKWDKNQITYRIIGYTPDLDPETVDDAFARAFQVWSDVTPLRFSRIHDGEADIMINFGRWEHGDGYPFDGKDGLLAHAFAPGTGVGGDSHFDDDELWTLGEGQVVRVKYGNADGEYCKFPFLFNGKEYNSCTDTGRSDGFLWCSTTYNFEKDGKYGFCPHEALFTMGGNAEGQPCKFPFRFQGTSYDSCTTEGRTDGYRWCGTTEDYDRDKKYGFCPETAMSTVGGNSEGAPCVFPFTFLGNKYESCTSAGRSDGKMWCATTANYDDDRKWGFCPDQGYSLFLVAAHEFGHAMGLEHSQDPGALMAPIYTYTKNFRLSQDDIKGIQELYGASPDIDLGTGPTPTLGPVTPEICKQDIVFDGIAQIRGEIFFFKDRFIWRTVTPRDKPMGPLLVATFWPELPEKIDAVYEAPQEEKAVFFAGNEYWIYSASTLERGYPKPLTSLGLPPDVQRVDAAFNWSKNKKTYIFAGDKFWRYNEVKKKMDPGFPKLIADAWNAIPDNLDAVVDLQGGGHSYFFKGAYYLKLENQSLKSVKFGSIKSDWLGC

A word on the IC50: it is the point on the concentration scale where inhibition reaches its midpoint. As to `COc1cc(C(=O)O[C@@H]2Cc3c(O)cc(O)cc3O[C@@H]2c2ccc(O)c(O)c2)cc(O)c1O`, the IC50 in test [1] is 15.6 µM; on Matrilysin, greater than 100 µM; in test [2], 88 µM.
The matching figures for `COc1c(O)cc(C(=O)O[C@@H]2Cc3c(O)cc(O)cc3O[C@@H]2c2ccc(O)c(O)c2)cc1O`: 3.7 µM, greater than 100 µM and 34 µM.
Taken in the same sequence, the figures for `COc1cc(C(=O)O[C@@H]2Cc3c(O)cc(O)cc3O[C@H]2c2cc(O)c(O)c(O)c2)cc(O)c1O` were 3.1 µM, 20 µM and 5.4 µM.
On to `COc1c(O)cc(C(=O)O[C@@H]2Cc3c(O)cc(O)cc3O[C@H]2c2cc(O)c(O)c(O)c2)cc1O`, for which the results for the IC50 (in test [1]; at Matrilysin; in test [2]) were 10.5 µM, 32 µM and 19 µM, respectively.
The matching figures for `COc1cc(C(=O)O[C@H]2Cc3c(O)cc(O)cc3O[C@@H]2c2ccc(O)c(O)c2)cc(O)c1O`: 52 µM, greater than 100 µM and 28 µM.
Taken in the same sequence, the figures for `COc1c(O)cc(C(=O)O[C@H]2Cc3c(O)cc(O)cc3O[C@@H]2c2ccc(O)c(O)c2)cc1O` were greater than 100 µM, greater than 100 µM and 22 µM.
As for `COc1c(O)cc(C(=O)O[C@@H]2Cc3c(O)cc(O)cc3O[C@@H]2c2cc(O)c(O)c(O)c2)cc1O`, the IC50 in test [1] is 12.5 µM; at Matrilysin, 72 µM; in test [2], 18.7 µM.
The matching figures for `COc1cc(C(=O)O[C@@H]2Cc3c(O)cc(O)cc3O[C@@H]2c2cc(O)c(O)c(O)c2)cc(O)c1O`: 1.7 µM, 20 µM and 8.7 µM.
Regarding `O=C(O[C@@H]1Cc2c(O)cc(O)cc2O[C@@H]1c1cc(O)c(O)c(O)c1)c1cc(O)c(O)c(O)c1` [EPIGALOCATECHIN GALLATE], the IC50 is 6.8 µM in test [1], 21.5 µM on Matrilysin and 9.6 µM in test [2].
